The text below walks through data of US20050118596A1, “Method for screening for compounds having hdac inhibitory activity” (priority 2002, published 2005).

Where two headings read alike, the source gives them in different places. Where a SMILES comes first, the peptide text is derived from it. [ ]: non-standard residue; d: D form. ξ: configuration not given here. Aoe(9ξ) = N[C@@H](CCCCCC(=O)C1CO1)C(=O)O; dPip = O=C(O)[C@H]1CCCCN1

For test [1], the target named is histone deacetylase activity purified from H1299 cells by ion exchange chromatography (human). Description: cell-based or functional assay.
The subject of test [2] is Fra-1 mRNA in A549 cells. The experiment in a line: Fra-1 mRNA levels by Q-PCR in A549 cells after HDAC inhibitor treatment. The test is classed as cell-based, Human. Particulars: for % Fra1 mRNA remaining / mrna remaining at 0.1 µM: A549 cells; for mrna remaining at 0.1 µM: Homo sapiens, 100 nM, n = 4 (Example 3), read-out: % Fra1 mRNA remaining. As for the experimental part: Human A549 non-small lung carcinoma cells (ATCC CCL-185, Manassas, Va.) are cultured in DMEM medium (Life Technologies, Gaithersburg, Md.) containing 4500 mg/l glucose, 10% fetal bovine serum (FBS, Life Technologies) plus 50 μg/ml Gentamycin (Life Technologies) in a humidified incubator with a 5% CO2 atmosphere at 37° C. Prior to Tpx A treatment, A549 cells are plated at a density of 2×10^5 cells/well in 6 well plates (Costar, Corning, N.Y.) and grown up for 24 h. Tpx A (1 mM stock solution in DMSO) is added to the cells at concentrations from 1 to 1000 nM and cells are incubated for either 24 or 48 hours h at 37° C.
(§1) Total RNA from Tpx A treated as well as untreated H1299 and A549 cells is prepared using the RNeasy Mini kit (Qiagen, Hilden, Germany) according to the manufacturers instructions. The RNA is recovered in 50 μl DEPC-treated H2O (RNase free) and the RNA concentration is determined by measuring the OD260 in a SpectraMax photometer (Molecular Devices, Sunnyvale, Calif.).
(§2) Sequences for primers (BIG, Freiburg, Germany) and TaqMan probes for Q-PCR containing 5′ FAM fluorescent reporter and 3′ TAMRA quencher dyes (Eurogentec, Seraing, Belgium) are selected using the Primer Express Software (Applied Biosystems, Foster City, Calif.) at default settings; Primer TM Requirements: Min Tm: 58° C., Max Tm:60° C., Optimal Tm: 59° C., Maximal Tm difference: 2° C. Primer GC Content Requirements: Min %GC 30, Max %GC 80, 3′ clamp of 0 residues. Primer Length Requirements: Min length: 9, Max length: 40, optimal length: 20. Amplicon Requirements: Min Tm: 0° C., Max Tm: 85° C., Min length: 50, Max length: 150. TaqMan Probe Criteria: TaqMan probe Tm must be 10° C. greater than PCR primer Tm.
(§3) Q-PCR is performed using the TaqMan PCR Core reagent kit (Applied Biosystems Foster City, Calif.) in a ABI Prism 7700 sequence detector (Applied Biosystems) according to the manufacturers instructions. 50 ng total RNA in 12 μl DEPC-H2O are prepared in MicroAmp optical 96 well reaction plates (Applied Biosystems) together with 13 μl TaqMan PCR reagent mix as provided in Table 1.
(§4) Settings for reverse transcription of the target RNA and detection by Q-PCR are 50° C. for 2 min., 95° C. for 10 min. followed by 50 cycles of 95° C. for 15 sec and 60° C. for 1 min. Relative measurement of the amplified product is performed using the comparative CT method as described in the manufacturer's manual (Applied Biosystems, ABI Prism 7700 sequence detection system, User Bulletin #2).
Human A549 non-small cell lung carcinoma cells (ATCC, Manassas, Va.) (ATCC #CCL-185) are cultured in DMEM medium (Life Technologies, Gaithersburg, Md.) containing 10% fetal bovine serum (FBS, Life Technologies) plus 50 μg/ml Gentamycin (Life Technologies) in a humidified incubator with a 5% CO2 atmosphere at 37° C. Prior to Compound B treatment, A549 cells are plated at a density of 5×10^4 cells/well in 24 well plates (Costar, Corning, N.Y.) and grown up for 24 h. Compound B (10 mM stock solution in DMSO) is diluted to a final concentration of 100 nM in tissue culture medium and added to the cells. As control an equivalent amount of DMSO is added to control cultures without Compound B. The cells are incubated at 37° C. for either 16, 24 or 48 hrs. All cell cultures are set up in duplicate. Total RNA from the compound—treated as well as untreated A549 cells is prepared using the RNeasy Mini kit (Qiagen, Hilden, Germany) according to the manufacturer's instructions. The RNA is recovered in 50 μl DEPC-treated H2O (RNase free) and the RNA concentration is determined by measuring the OD260 in a SpectraMax photometer (Molecular Devices, Sunnyvale, Calif.). The amount of RNA is adjusted to 5 ng/microliter.
DNA sequence of the Fra-1 primers and probes are as described above. Settings for reverse transcription of the target RNA and detection by Q-PCR are 50° C. for 2 min., 95° C. for 10 min. followed by 50 cycles of 95° C. for 15 sec and 60° C. for 1 min. […]

Test [3] relates to Fra-1 mRNA in HCT116 cells. Description: Fra-1 mRNA levels by Q-PCR in HCT116 cells after HDAC inhibitor treatment. The format is cell-based. To be noted: for % Fra1 mRNA remaining: 100 nM drug; for mrna remaining at 0.1 µM: Homo sapiens, HCT-116, 100 nM drug, read-out: % Fra1 mRNA remaining. The protocol:
(§5) H1299 cells and HCT116 cells (ATCC, Manassas, Va.) are cultured and exposed to Tpx A or Compound A and levels of Fra-1 message assayed. In these experiments, H1299 cells are cultured as described in Example 1. HCT116 cells are cultured in RPMI 1640 medium containing 10% fetal calf serum at 37° C. and 5% CO2. 100 nM trapoxin, 100 nM Compound A or 100 nM DMSO are added to the cells at 60% confluence and grown up for either 6 or 24 hours. Using methodologies as described in Example 1 above, the RNA from cultures treated with Tpx A, Compound A or DMSO as a control is obtained and analysed by Q-PCR for Fra-1 levels; in this case, 8.7 ng total RNA in 12 μl DEPC-H2O are prepared in MicroAmp optical 96 well reaction plates (Applied Biosystems) together with 13 μl TaqMan PCR reagent mix as provided in Table 1.

In test [4] the test system is Fra-1 mRNA in H1299 cells. The experiment in a line: Fra-1 mRNA levels by Q-PCR in H1299 cells after HDAC inhibitor treatment. The test is classed as cell-based, Human. To be noted: for % Fra1 mRNA remaining / mrna remaining at 0.1 µM: H1299 cells; for mrna remaining at 0.1 µM: Homo sapiens, NCI-H1299, read-out: % Fra1 mRNA remaining. The protocol: Human H1299 non-small cell lung carcinoma cells (ATCC, Manassas, Va.) (ATCC #CRL-5803) are cultured in RPMI 1640 medium (Life Technologies, Gaithersburg, Md.) containing 10% fetal bovine serum (FBS, Life Technologies) plus 50 μg/ml Gentamycin (Life Technologies) in a humidified incubator with a 5% CO2 atmosphere at 37° C. Prior to Tpx A treatment, H1299 cells are plated at a density of 2×10^5 cells/well in 6 well plates (Costar, Corning, N.Y.) and grown up for 24 h. Tpx A (1 mM stock solution in DMSO) is added to the cells at concentrations from 1 to 1000 nM and cells are incubated for either 24 or 48 hours at 37° C.
as §1, §2, §3, §4, §5

For test [5], the system named is Fra-1 mRNA in A549 cells. The experiment in a line: Fra-1 mRNA expression by conventional microarray technology in A549 cells. The test is classed as cell-based, Human. Particulars: in the presence of TPX A, data not shown.
Test [6] deals with histone deacetylase activity purified from H1299 cells. Description: Histone deacetylase activity, release of tritium labeled acetyl groups from acetylated Histone H4 peptide. The test is classed as biochemical, Human. To be noted: HDAC activity purified from H1299 cells, 2 hours at 37° C. The protocol:
Using conventional methodologies, the actual enzyme activity of […] was examined in the presence of Trapoxin A, Compound A or Compound B. Briefly, 30,000 cpms of a tritium labeled acetylated Histone H4 peptide is incubated with histone deacetylase activity purified from H1299 cells by ion exchange chromatography in HDAC assay buffer (10 mM Tris-Cl, pH 8.0, 10 mM NaCl, 10% glycerol) in the presence or absence of drug. The mixture is allowed to sit for 2 hours at 37° C. and radio-labeled acetyl groups released by histone deacetylase activity extracted into ethyl acetate and counted on a scintillation counter. The IC50 represents the concentration of drug that inhibits 50% of the histone deacetylase activity obtained in the absence of drug.

Test [7] has as its system Fra-1 mRNA in H1299 cells. The experiment in a line: Fra-1 mRNA expression by conventional microarray technology in H1299 cells. The format is cell-based, Human. Particulars: in the presence of TPX A, data not shown.

With trapoxin A (peptide), in test [1], the IC50/µM on histone deacetylase (release of tritium-labelled acetyl groups from an acetylated Histone H4 peptide) worked out at 2.2 µM.
Take `O=C(CCCCC[C@@H]1NC(=O)[C@H]2CCCCN2C(=O)[C@H](Cc2ccccc2)NC(=O)[C@H](Cc2ccccc2)NC1=O)C1CO1` (some centres unmarked) [TPX A, trapoxin A] (cyclo(FF[dPip][Aoe(9ξ)])): the IC50 is 10 to 50 nM in test [2] (A549 cell line, Tpx A treatment, Q-PCR, read-out: IC50 for Fra-1 mRNA down regulation); 1 to 10 nM in test [4] (H1299 cell line, Tpx A treatment, Q-PCR, read-out: IC50 for Fra-1 mRNA down regulation); 2.2 ± 0.96 µM in test [6]. For the same compound, the “% Fra1 mRNA remaining” value in test [2] (24 hours, 1 nM TPX A) is recorded as 95%; in test [2] (24 hours, 10 nM TPX A) it was 64%; in test [2] (24 hours, 50 nM TPX A), 26%; in test [2] (24 hours, 100 nM TPX A), 16%; in test [2] (24 hours, 250 nM TPX A) it was 6%; in test [2] (24 hours, 500 nM TPX A), 4%. Moreover, the “% Fra1 mRNA remaining” value was 3% in test [2] (24 hours, 1000 nM TPX A); 93% in test [2] (48 hours, 1 nM TPX A); 84% in test [2] (48 hours, 10 nM TPX A); 38% in test [2] (48 hours, 50 nM TPX A); 32% in test [2] (48 hours, 100 nM TPX A); 14% in test [2] (48 hours, 250 nM TPX A). Also, the “% Fra1 mRNA remaining” value in test [2] (48 hours, 500 nM TPX A) amounted to 7%; in test [2] (48 hours, 1000 nM TPX A), 6%; in test [3] (6 hr), 14.25%; in test [3] (24 hr) it was 13.68%; in test [4] (100 nM drug, 6 hr (Example 2)) it was 5.81%; in test [4] (100 nM drug, 24 hr (Example 2)) it was 3.11%. The “% Fra1 mRNA remaining” value in test [4] (24 hours, 1 nM TPX A) is given as 98%; in test [4] (24 hours, 10 nM TPX A), 2%; in test [4] (24 hours, 50 nM TPX A), 1%; in test [4] (24 hours, 100 nM TPX A) it was 1%; in test [4] (24 hours, 250 nM TPX A), 1%; in test [4] (24 hours, 500 nM TPX A) it was 1%. The “% Fra1 mRNA remaining” value in test [4] (24 hours, 1000 nM TPX A) is reported as 1%; in test [4] (48 hours, 1 nM TPX A), 94%; in test [4] (48 hours, 10 nM TPX A) it was 7%; in test [4] (48 hours, 50 nM TPX A), 1%; in test [4] (48 hours, 100 nM TPX A), 1%; in test [4] (48 hours, 250 nM TPX A), 1%. Also, the “% Fra1 mRNA remaining” value in test [4] (48 hours, 500 nM TPX A) came to 1%; in test [4] (48 hours, 1000 nM TPX A), 1%. For the same compound, the “repression of Fra-1 mRNA expression (microarray)” value in test [5] and in test [7] was more than 200 fold in each case.
On to `O=C(/C=C/c1ccc(CNCCc2c[nH]c3ccccc23)cc1)NO` [Compound A, N-Hydroxy-3-[4-[[[2-(1H-indol-3-yl)-ethyl]-amino]methyl]phenyl]-2E-2-propenamide], for which the mrna remaining at 0.1 µM in test [3] (6 hr) is 32.6%; in test [3] (24 hr), 15.9%; in test [4] (100 nM drug, 6 hr (Example 2)), 7.14%; in test [4] (100 nM drug, 24 hr (Example 2)) it was 2.07%. The IC50 in test [6] is 0.063 ± 0.01 µM.
In the case of `O=C(/C=C/c1ccc(CN(CCO)CCc2c[nH]c3ccccc23)cc1)NO` [Compound B, N-Hydroxy-3-[4-[[(2-hydroxyethyl)[2-(1H-indol-3-yl)-ethyl]-amino]methyl]phenyl]-2E-2-propenamide], the mrna remaining at 0.1 µM in test [2] (16 hr) was 15%; in test [2] (24 hr) it was 14.1%; in test [2] (48 hr) it was 52.8%. In addition, in test [6], the IC50 stood at 0.032 ± 0.017 µM.
